The source of these data is ChEMBL document CHEMBL1133498, “QSAR of 1,1'-(1,2-ethylenebisbenzyl)bis(4-substitutedpyridinium) dibromides as choline kinase inhibitors: a different approach for antiproliferative drug design” (Bioorg Med Chem Lett, 2000).

A word on the IC50: it is the concentration needed to halve the response being measured. The low end stands for greater potency, the high end for weaker potency.

For this assay, the system named is HT-29. Nature of the assay: Compound was tested in vitro for antiproliferative activity against human HT-29 cell line. It is filed as functional, cell-based.
On to `c1cc(C[n+]2ccc(N3CCCCCC3)cc2)ccc1CCc1ccc(C[n+]2ccc(N3CCCCCC3)cc2)cc1`, for which it took 0.4 µM to reach half-maximal inhibition (IC50).
Then `OCc1cc[n+](Cc2ccc(CCc3ccc(C[n+]4ccc(CO)cc4)cc3)cc2)cc1`, with over 100 µM; and `N#Cc1cc[n+](Cc2ccc(CCc3ccc(C[n+]4ccc(C#N)cc4)cc3)cc2)cc1`, with 200 µM; and `O=C(O)c1cc[n+](Cc2ccc(CCc3ccc(C[n+]4ccc(C(=O)O)cc4)cc3)cc2)cc1`, with over 1000 µM.
Then `C[N+]1(C)CCOC(O)(c2ccc(-c3ccc(C4(O)C[N+](C)(C)CCO4)cc3)cc2)C1` (stereo unspecified) [HEMICHOLINIUM-3], with 2500 µM; and `C=CCN(CC=C)c1cc[n+](Cc2ccc(CCc3ccc(C[n+]4ccc(N(CC=C)CC=C)cc4)cc3)cc2)cc1`, with 0.55 µM.
Regarding `Cc1cc[n+](Cc2ccc(CCc3ccc(C[n+]4ccc(C)cc4)cc3)cc2)cc1`, the half-maximal inhibitory concentration (IC50) is 20 µM. This IC50 lies about 36-fold higher than the previous one.
In the case of `CN(C)c1cc[n+](Cc2ccc(CCc3ccc(C[n+]4ccc(N(C)C)cc4)cc3)cc2)cc1` it was 2 µM.
Take `c1cc(C[n+]2ccc(N3CCCC3)cc2)ccc1CCc1ccc(C[n+]2ccc(N3CCCC3)cc2)cc1`: it took 1 µM to reach half-maximal inhibition (IC50).
In the case of `c1cc(C[n+]2ccc(N3CCCCC3)cc2)ccc1CCc1ccc(C[n+]2ccc(N3CCCCC3)cc2)cc1` it was 0.4 µM.
Turning to `Nc1cc[n+](Cc2ccc(CCc3ccc(C[n+]4ccc(N)cc4)cc3)cc2)cc1`, the IC50 came to 4 µM.
